Data as given in EP4722212A1, “NOVEL COMPOUND FOR INHIBITING PROTEIN KINASES AND PHARMACEUTICAL COMPOSITION COMPRISING SAME” (Magicbullettherapeutics Co., Ltd., priority 2023, dated 2024).
Like-named read-outs stand apart in the source and are kept apart here.

Tests used:
Test in all cases: Kinase panel
Type in all cases: biochemical
AKT1 = AKT1 (Homo sapiens, UniProt P31749); details: AKT1, 1 µM; read-out: residual enzyme activity
In short: (§1)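 Compound at 1 µM was screened against a complete panel of purified kinases in biochemical format. Activity left after treatment was calculated and kinases inhibited by 60% or more were selected.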

ALK6/BMPR1B = ALK6/BMPR1B (Homo sapiens, UniProt O00238); details: read-out: residual enzyme activity
In short: as §1

BMPR2 = BMPR2 (Homo sapiens, UniProt Q13873); details: BMPR2, 1 µM; read-out: residual enzyme activity
In short: as §1

CAMK1D = CAMK1D (Homo sapiens, UniProt Q8IU85); details: read-out: residual enzyme activity
In short: as §1

CAMK2D = CAMK2D (Homo sapiens, UniProt Q13557); details: read-out: residual enzyme activity
In short: as §1

CDC7/DBF4 = CDC7/DBF4 (Homo sapiens, UniProt O00311); details: CDC7/DBF4, 1 µM; read-out: residual enzyme activity
In short: as §1

CDK2/CYCLIN A1 = CDK2/CYCLIN A1 (Homo sapiens, UniProt P24941); details: CDK2/Cyclin A1, 1 µM; read-out: residual enzyme activity
In short: as §1

CDK6/CYCLIN D1 = CDK6/CYCLIN D1 (Homo sapiens, UniProt Q00534); details: CDK6/cyclin D1, 1 µM; read-out: residual enzyme activity
In short: as §1

CDK7/CYCLIN H = CDK7/CYCLIN H (Homo sapiens, UniProt P50613); details: read-out: residual enzyme activity
In short: as §1

CHK2 = CHK2 (Homo sapiens, UniProt O96017); details: CHK2, 1 µM; read-out: residual enzyme activity
In short: as §1

DCAMKL2 = DCAMKL2 (Homo sapiens, UniProt Q8N568); details: DCAMKL2, 1 µM; read-out: residual enzyme activity
In short: as §1

EPHA3 = EPHA3 (Homo sapiens, UniProt P29320); details: EPHA3, 1 µM; read-out: residual enzyme activity
In short: as §1

EPHA6 = EPHA6 (Homo sapiens, UniProt Q9UF33); details: EPHA6, 1 µM; read-out: residual enzyme activity
In short: as §1

FGFR3 = FGFR3 (Homo sapiens, UniProt P22607); details: FGFR3, 1 µM; read-out: residual enzyme activity
In short: as §1

GSK3A = GSK3A (Homo sapiens, UniProt P49840); details: read-out: residual enzyme activity
In short: as §1

GSK3B = GSK3B (Homo sapiens, UniProt P49841); details: read-out: residual enzyme activity
In short: as §1

JAK2 = JAK2 (Homo sapiens, UniProt O60674); details: JAK2, 1 µM; read-out: residual enzyme activity
In short: as §1

MAPKAPKS/PRAK = MAPKAPKS/PRAK (Homo sapiens, UniProt Q8IW41); details: read-out: residual enzyme activity
In short: as §1

MEKK3 = MEKK3 (Homo sapiens, UniProt Q99759); details: MEKK3, 1 µM; read-out: residual enzyme activity
In short: as §1

MKK4 = MKK4 (Homo sapiens, UniProt P45985); details: MKK4, 1 µM; read-out: residual enzyme activity
In short: as §1

PAK6 = PAK6 (Homo sapiens, UniProt Q9NQU5); details: PAK6, 1 µM; read-out: residual enzyme activity
In short: as §1

PKACG = PKACG (Homo sapiens, UniProt P22612); details: read-out: residual enzyme activity
In short: as §1

PKCZETA = PKCZETA (Homo sapiens, UniProt Q05513); details: read-out: residual enzyme activity
In short: as §1

PKN1/PRK1 = PKN1/PRK1 (Homo sapiens, UniProt Q16512); details: PKN1/PRK1, 1 µM; read-out: residual enzyme activity
In short: as §1

PKN3/PRK3 = PKN3/PRK3 (Homo sapiens, UniProt Q6P5Z2); details: PKN3/PRK3, 1 µM; read-out: residual enzyme activity
In short: as §1

ROS/ROS1 = ROS/ROS1 (Homo sapiens, UniProt P08922); details: ROS/ROS1, 1 µM; read-out: residual enzyme activity
In short: as §1

SGK2 = SGK2 (Homo sapiens, UniProt Q9HBY8); details: SGK2, 1 µM; read-out: residual enzyme activity
In short: as §1

SIK1 = SIK1 (Homo sapiens, UniProt P57059); details: SIK1, 1 µM; read-out: residual enzyme activity
In short: as §1

SLK/STK2 = SLK/STK2 (Homo sapiens, UniProt Q9H2G2); details: SLK/STK2, 1 µM; read-out: residual enzyme activity
In short: as §1

STK32C/YANK3 = STK32C/YANK3 (Homo sapiens, UniProt Q86UX6); details: STK32C/YANK3, 1 µM; read-out: residual enzyme activity
In short: as §1

STK33 = STK33 (Homo sapiens, UniProt Q9BYT3); details: STK33, 1 µM; read-out: residual enzyme activity
In short: as §1

TBK1 = TBK1 (Homo sapiens, UniProt Q9UHD2); details: TBK1, 1 µM; read-out: residual enzyme activity
In short: as §1

TRKB = TRKB (Homo sapiens, UniProt Q16620); details: read-out: residual enzyme activity
In short: as §1

Chain of EPHA6 (Q9UF33 23-1036, species assumed): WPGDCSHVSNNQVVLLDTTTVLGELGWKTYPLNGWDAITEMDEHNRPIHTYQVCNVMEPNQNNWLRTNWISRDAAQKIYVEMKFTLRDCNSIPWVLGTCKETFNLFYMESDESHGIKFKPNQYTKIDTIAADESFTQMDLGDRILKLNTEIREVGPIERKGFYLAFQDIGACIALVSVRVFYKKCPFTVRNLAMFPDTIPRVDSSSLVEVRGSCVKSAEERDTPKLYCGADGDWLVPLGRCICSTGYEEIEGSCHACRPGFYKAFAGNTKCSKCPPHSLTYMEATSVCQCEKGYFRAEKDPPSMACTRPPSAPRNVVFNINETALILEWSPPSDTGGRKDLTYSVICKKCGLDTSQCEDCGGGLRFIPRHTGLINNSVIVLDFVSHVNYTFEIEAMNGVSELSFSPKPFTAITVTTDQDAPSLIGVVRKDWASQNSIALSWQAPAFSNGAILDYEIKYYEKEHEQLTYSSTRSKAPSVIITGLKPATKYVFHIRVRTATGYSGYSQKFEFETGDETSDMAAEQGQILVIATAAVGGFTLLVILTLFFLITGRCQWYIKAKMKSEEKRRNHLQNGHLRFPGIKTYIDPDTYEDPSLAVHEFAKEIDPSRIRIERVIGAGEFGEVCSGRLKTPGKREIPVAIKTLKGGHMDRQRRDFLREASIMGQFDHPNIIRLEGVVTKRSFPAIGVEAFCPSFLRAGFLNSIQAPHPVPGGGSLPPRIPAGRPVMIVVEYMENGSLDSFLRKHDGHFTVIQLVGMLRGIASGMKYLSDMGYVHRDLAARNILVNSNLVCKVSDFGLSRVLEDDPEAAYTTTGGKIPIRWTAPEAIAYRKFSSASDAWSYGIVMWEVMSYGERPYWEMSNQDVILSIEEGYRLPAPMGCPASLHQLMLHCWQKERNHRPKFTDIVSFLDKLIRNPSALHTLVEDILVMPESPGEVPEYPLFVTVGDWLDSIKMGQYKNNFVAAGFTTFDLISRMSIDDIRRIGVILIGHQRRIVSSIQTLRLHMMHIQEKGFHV
Chain of STK33 (Q9BYT3 whole entry, species assumed): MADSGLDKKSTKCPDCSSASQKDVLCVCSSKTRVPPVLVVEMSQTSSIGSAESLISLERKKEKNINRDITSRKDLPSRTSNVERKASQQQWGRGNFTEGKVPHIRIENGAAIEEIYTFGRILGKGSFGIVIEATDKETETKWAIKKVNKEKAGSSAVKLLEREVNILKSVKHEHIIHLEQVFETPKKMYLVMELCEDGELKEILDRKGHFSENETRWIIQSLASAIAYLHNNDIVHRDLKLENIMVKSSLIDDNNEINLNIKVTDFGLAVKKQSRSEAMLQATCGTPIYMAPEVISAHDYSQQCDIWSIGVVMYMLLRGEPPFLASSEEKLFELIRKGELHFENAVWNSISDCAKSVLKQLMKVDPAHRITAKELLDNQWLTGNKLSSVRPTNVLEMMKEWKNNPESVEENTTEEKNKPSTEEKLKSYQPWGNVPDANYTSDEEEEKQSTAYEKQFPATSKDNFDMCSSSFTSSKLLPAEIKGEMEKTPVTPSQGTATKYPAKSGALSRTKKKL
Chain of PKN1/PRK1 (Q16512 whole entry): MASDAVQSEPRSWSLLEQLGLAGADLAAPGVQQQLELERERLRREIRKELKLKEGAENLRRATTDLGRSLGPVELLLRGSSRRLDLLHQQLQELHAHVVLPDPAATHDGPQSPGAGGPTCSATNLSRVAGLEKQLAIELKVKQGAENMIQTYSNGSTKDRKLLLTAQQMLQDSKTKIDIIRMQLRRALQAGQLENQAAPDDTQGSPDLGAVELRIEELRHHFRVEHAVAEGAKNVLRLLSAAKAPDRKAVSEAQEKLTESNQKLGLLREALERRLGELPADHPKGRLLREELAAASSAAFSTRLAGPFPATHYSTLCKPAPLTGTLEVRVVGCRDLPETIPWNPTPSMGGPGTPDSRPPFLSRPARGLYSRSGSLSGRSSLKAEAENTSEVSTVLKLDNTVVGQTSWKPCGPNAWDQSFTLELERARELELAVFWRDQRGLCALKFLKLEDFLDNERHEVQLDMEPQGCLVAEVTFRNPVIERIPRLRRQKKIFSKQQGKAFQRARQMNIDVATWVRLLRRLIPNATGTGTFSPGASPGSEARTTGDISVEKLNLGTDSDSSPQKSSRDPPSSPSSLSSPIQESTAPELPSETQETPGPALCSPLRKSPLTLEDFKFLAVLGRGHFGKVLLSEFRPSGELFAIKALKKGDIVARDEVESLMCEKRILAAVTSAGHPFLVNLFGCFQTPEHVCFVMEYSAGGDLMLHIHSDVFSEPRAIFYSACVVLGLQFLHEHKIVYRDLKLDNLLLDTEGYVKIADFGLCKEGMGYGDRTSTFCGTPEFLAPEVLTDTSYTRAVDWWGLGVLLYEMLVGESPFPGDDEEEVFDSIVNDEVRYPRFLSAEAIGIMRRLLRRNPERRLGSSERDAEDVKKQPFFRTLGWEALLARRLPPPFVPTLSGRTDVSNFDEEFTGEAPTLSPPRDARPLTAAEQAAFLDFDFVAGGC
Chain of TRKB (Q16620 32-822, species assumed): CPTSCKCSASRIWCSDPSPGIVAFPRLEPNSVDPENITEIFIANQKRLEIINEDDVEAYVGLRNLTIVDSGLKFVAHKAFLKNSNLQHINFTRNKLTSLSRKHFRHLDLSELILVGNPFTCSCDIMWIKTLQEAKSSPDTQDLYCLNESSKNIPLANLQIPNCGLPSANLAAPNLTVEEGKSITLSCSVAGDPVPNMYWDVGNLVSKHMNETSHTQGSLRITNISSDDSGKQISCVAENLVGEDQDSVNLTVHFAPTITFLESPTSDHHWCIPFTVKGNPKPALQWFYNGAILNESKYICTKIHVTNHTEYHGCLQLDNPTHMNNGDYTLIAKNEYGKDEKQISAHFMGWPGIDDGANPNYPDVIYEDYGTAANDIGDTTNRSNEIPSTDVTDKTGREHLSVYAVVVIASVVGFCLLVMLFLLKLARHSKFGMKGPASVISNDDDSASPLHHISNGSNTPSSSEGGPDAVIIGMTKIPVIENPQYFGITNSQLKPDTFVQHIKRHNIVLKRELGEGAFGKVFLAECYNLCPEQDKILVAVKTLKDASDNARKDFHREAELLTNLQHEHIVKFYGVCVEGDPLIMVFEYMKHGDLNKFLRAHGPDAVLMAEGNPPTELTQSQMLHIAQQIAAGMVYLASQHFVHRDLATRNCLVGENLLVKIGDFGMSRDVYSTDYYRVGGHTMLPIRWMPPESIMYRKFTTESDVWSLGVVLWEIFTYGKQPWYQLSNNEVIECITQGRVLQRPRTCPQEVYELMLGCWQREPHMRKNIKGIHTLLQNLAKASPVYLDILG
Chain of STK32C/YANK3 (Q86UX6 whole entry): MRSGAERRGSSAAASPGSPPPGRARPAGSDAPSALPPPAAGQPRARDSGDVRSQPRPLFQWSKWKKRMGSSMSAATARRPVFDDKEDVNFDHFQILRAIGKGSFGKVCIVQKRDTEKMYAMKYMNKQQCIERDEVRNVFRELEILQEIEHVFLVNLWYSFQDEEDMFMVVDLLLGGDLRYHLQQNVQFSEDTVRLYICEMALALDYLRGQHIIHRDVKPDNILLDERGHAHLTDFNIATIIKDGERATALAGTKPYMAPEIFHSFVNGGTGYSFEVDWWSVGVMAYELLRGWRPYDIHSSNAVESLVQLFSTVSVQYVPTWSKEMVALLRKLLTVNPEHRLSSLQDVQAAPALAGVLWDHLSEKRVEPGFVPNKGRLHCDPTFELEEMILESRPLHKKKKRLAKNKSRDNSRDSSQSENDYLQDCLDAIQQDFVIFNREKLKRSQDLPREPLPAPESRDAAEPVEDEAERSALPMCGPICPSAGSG
Chain of DCAMKL2 (Q8N568 whole entry, species assumed): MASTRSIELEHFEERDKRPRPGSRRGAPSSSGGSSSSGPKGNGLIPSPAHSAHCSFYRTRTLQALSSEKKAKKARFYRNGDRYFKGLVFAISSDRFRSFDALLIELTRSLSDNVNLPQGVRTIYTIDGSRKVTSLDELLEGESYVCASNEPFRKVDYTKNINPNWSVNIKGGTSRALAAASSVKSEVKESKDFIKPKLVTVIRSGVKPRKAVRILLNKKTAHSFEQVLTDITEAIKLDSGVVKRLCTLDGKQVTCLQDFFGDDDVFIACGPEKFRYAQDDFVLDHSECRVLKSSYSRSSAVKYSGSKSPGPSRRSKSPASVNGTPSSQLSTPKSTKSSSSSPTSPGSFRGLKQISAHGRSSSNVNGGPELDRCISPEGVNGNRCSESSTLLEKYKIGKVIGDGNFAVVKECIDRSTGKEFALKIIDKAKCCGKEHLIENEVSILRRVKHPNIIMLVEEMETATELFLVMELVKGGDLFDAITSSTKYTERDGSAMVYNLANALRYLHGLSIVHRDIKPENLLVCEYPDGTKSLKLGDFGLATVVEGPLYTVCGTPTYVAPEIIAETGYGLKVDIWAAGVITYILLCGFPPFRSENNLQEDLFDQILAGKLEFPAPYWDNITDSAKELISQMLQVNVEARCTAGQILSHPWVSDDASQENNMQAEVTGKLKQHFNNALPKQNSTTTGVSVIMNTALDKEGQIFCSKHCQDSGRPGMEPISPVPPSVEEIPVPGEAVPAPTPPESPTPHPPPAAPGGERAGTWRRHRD
Chain of AKT1 (P31749 whole entry): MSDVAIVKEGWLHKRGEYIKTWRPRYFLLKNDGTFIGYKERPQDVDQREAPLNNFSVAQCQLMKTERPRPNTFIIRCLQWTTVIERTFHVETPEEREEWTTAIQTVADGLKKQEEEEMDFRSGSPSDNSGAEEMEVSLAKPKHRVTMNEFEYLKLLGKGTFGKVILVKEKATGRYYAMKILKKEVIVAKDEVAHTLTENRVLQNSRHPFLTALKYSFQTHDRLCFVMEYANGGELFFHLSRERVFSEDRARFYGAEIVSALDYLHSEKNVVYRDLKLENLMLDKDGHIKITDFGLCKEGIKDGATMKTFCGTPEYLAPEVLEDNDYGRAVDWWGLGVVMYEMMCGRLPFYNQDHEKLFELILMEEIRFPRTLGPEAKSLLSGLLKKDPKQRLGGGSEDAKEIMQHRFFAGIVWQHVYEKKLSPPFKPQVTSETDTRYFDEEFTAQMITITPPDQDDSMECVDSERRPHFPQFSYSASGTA

Row | SMILES | remaining activity at 1 µM (AKT1) | remaining activity at 1 µM (ALK6/BMPR1B) | remaining activity at 1 µM (BMPR2) | remaining activity at 1 µM (CDC7/DBF4) | remaining activity at 1 µM (CDK2/CYCLIN A1) | remaining activity at 1 µM (CDK6/CYCLIN D1) | remaining activity at 1 µM (CDK7/CYCLIN H) | remaining activity at 1 µM (CHK2) | remaining activity at 1 µM (DCAMKL2) | remaining activity at 1 µM (EPHA3) | remaining activity at 1 µM (EPHA6) | remaining activity at 1 µM (FGFR3) | remaining activity at 1 µM (JAK2) | remaining activity at 1 µM (MAPKAPKS/PRAK) | remaining activity at 1 µM (MEKK3) | remaining activity at 1 µM (MKK4) | remaining activity at 1 µM (PAK6) | remaining activity at 1 µM (PKACG) | remaining activity at 1 µM (PKCZETA) | remaining activity at 1 µM (PKN1/PRK1) | other results
1 | Cc1ccc(Nc2ncc3c(n2)C2(CC2)C(=O)N(c2cc(NC(=O)c4cccc(C(F)(F)F)c4)ccc2C)C3)cn1 [Compound 51, N-(4-methyl-3-(2'-((6-methylpyridin-3-yl)amino)-7'-oxo-5'H-spiro[cyclopropane-1,8'-pyrido[4,3-d]pyrimidine]-6'(7'H)-yl)phenyl)-3-(trifluoromethyl)benzamide] | > 40% | > 40% | > 40% | > 40% | > 40% | > 40% | > 40% | > 40% | > 40% | ≤ 40% | ≤ 40% | ≤ 40% | ≤ 40% | > 40% | ≤ 40% | > 40% | > 40% | ≤ 40% | > 40% | > 40% | remaining activity at 1 µM (CAMK1D; CAMK1d): > 40%; remaining activity at 1 µM (CAMK2D; CAMK2d): > 40%; remaining activity at 1 µM (GSK3A; GSK3a): > 40%; remaining activity at 1 µM (GSK3B; GSK3b): > 40%; remaining activity at 1 µM (PKN3/PRK3): > 40%; remaining activity at 1 µM (ROS/ROS1): ≤ 40%; remaining activity at 1 µM (SGK2): > 40%; remaining activity at 1 µM (SIK1): ≤ 40%; remaining activity at 1 µM (SLK/STK2): ≤ 40%; remaining activity at 1 µM (STK32C/YANK3): > 40%; remaining activity at 1 µM (STK33): > 40%; remaining activity at 1 µM (TBK1): > 40%; remaining activity at 1 µM (TRKB): ≤ 40%
2 | Cc1cn(-c2cc(C(=O)Nc3ccc(C)c(N4Cc5cnc(NC6CC6)nc5C5(CC5)C4=O)c3)cc(C(F)(F)F)c2)cn1 [Compound 8, N-(3-(2'-(cyclopropylamino)-7'-oxo-5'H-spiro[cyclopropane-1,8'-pyrido[4,3-d]pyrimidine]-6'(7'H)-yl)-4-methylphenyl)-3-(4-methyl-1H-imidazol-1-yl)-5-(trifluoromethyl)benzamide] | > 40% | > 40% | > 40% | > 40% | > 40% | > 40% | > 40% | > 40% | > 40% | ≤ 40% | ≤ 40% | ≤ 40% | ≤ 40% | > 40% | ≤ 40% | > 40% | > 40% | ≤ 40% | > 40% | > 40% | remaining activity at 1 µM (CAMK1D; CAMK1D): > 40%; remaining activity at 1 µM (CAMK2D; CAMK2D): > 40%; remaining activity at 1 µM (GSK3A; GSK3A): > 40%; remaining activity at 1 µM (GSK3B; GSK3B): > 40%; remaining activity at 1 µM (PKN3/PRK3): > 40%; remaining activity at 1 µM (ROS/ROS1): ≤ 40%; remaining activity at 1 µM (SGK2): > 40%; remaining activity at 1 µM (SIK1): ≤ 40%; remaining activity at 1 µM (SLK/STK2): ≤ 40%; remaining activity at 1 µM (STK32C/YANK3): > 40%; remaining activity at 1 µM (STK33): > 40%; remaining activity at 1 µM (TBK1): > 40%; remaining activity at 1 µM (TRKB): ≤ 40%
